The source of these data is US12661342B2, “Heteroaryl compounds and therapeutic uses thereof in conditions associated with the alteration of the activity of beta-glucocerebrosidase” (GT GAIN THERAPEUTICS SA, priority 2019, dated 2026).

This experiment deals with T1, β-glucocerebrosidase (Homo sapiens, UniProt P04062, L483P).
T1 construct: host or cells: human Gaucher disease patient fibroblasts GM08760A
T1 sequence (P04062 40-536 L483P): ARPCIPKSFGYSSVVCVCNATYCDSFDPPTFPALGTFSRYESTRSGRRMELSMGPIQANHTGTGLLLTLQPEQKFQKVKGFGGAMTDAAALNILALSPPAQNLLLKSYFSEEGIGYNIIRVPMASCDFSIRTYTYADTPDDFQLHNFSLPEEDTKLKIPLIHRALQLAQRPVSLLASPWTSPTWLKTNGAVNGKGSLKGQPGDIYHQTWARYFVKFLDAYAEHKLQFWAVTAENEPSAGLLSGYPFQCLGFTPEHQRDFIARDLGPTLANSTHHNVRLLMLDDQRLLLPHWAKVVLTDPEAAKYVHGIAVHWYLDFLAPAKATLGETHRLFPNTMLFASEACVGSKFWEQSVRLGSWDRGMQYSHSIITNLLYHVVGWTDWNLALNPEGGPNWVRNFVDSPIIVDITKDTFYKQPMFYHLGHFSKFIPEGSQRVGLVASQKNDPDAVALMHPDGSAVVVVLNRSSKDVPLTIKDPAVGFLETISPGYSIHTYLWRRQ
Put plainly: Enhancement of β-glucocerebrosidase activity measured in Gaucher disease fibroblasts (4-MU-β-D-glucopyranoside substrate, intact cells). Type of experiment: cell-based. Also on record: key: Increase in comparison with non-treated of >2.0 fold is shown as A; Increase in comparison with non-treated of >1.7-2.0 fold is shown as B; Increase in comparison with non-treated of 1.2-1.7 fold is shown as C; D means that no increase compared with non-treated cells was detected in this method. The conditions noted are these: GBA fibroblasts bearing L444P (GM08760A, homozygous p.L444P); compound at concentrations between 6 and 50 μM; 4 days incubation. Put shortly: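 Patient fibroblasts homozygous for p.L444P (GM08760A), grown in DMEM/10% FBS and exposed to compound for 4 days. Intact cells then given 4-MU-β-D-glucopyranoside in 0.1 M acetate pH 4, 1 h, 37 °C; stopped at pH 10.7, 4-MU fluorescence ex 340/em 460. Value is fold increase over untreated cells; binned at 6–50 μM.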

As for `Nc1cc(C(=O)N2CCN(c3ccccc3)CC2)nc(Nc2ccccc2O)n1` [Example 1, (6-Amino-2-((2-hydroxyphenyl)amino)pyrimidin-4-yl)(4-phenylpiperazin-1-yl)methanone], the “Range: increase in enzyme activity in comparison with non-treated cells (Enzyme activity assay for exemplified compounds)” value was “C (Increase in comparison with non-treated of 1.2-1.7 fold is shown as C)”.

`Nc1nc(Nc2ccccc2O)cc(C(=O)N2CCc3ccccc3C2)n1` [Example 85, (2-Amino-6-((2-hydroxyphenyl)amino)pyrimidin-4-yl)(3,4-dihydroisoquinolin-2(1H)-yl)methanone]: the “Range: increase in enzyme activity in comparison with non-treated cells (Enzyme activity assay for compounds of Examples 33-141)” value was “C (Increase in comparison with non-treated of 1.2-1.7 fold is shown as C)”.

With `CN(C(=O)c1nc(N)nc(Nc2cccc(Br)c2)n1)c1ccccc1` [Example 18, 4-Amino-6-((3-bromophenyl)amino)-N-methyl-N-phenyl-1,3,5-triazine-2-carboxamide], the “Range: increase in enzyme activity in comparison with non-treated cells (Enzyme activity assay for exemplified compounds)” value is reported as “D”.

Consider `Nc1cc(Nc2ccccc2Cl)cc(C(=O)NC2Cc3ccccc3C2)n1` [Example 72, 6-Amino-4-((2-chlorophenyl)amino)-N-(2,3-dihydro-1H-inden-2-yl)picolinamide], for which the “Range: increase in enzyme activity in comparison with non-treated cells (Enzyme activity assay for compounds of Examples 33-141)” value is given as “D”.

On to `COc1cccc(Nc2nc(N)cc(C(=O)N3Cc4ccccc4C3)n2)c1` [Example 38, (6-Amino-2-((3-methoxyphenyl)amino)pyrimidin-4-yl)(isoindolin-2-yl)methanone], for which the “Range: increase in enzyme activity in comparison with non-treated cells (Enzyme activity assay for compounds of Examples 33-141)” value is listed as “D”.

As to `Nc1cc(C(=O)N2CCCc3ccccc32)nc(Nc2ccccc2O)n1` [Example 36, (6-Amino-2-((2-hydroxyphenyl)amino)pyrimidin-4-yl)(3,4-dihydroquinolin-1(2H)-yl)methanone], the “Range: increase in enzyme activity in comparison with non-treated cells (Enzyme activity assay for compounds of Examples 33-141)” value is given as “C (Increase in comparison with non-treated of 1.2-1.7 fold is shown as C)”.

On to `Nc1nc(Nc2ccccc2O)cc(C(=O)NC2Cc3ccccc3C2)n1` [Example 81, 2-amino-N-(2,3-dihydro-1H-inden-2-yl)-6-((2-hydroxyphenyl)amino)pyrimidine-4-carboxamide], for which the “Range: increase in enzyme activity in comparison with non-treated cells (Enzyme activity assay for compounds of Examples 33-141)” value is “B (Increase in comparison with non-treated of >1.7-2.0 fold is shown as B)”.

Take `Cc1cccc(Nc2cc(N)cc(C(=O)NC3Cc4ccccc4C3)n2)c1F` [Example 90, 4-Amino-N-(2,3-dihydro-1H-inden-2-yl)-6-((2-fluoro-3-methylphenyl)amino)picolinamide]: the “Range: increase in enzyme activity in comparison with non-treated cells (Enzyme activity assay for compounds of Examples 33-141)” value is recorded as “C (Increase in comparison with non-treated of 1.2-1.7 fold is shown as C)”.

Regarding `Nc1cc(C(=O)Nc2ccccc2)nc(Nc2ccccc2O)n1` [Example 11, 6-Amino-2-((2-hydroxyphenyl)amino)-N-phenylpyrimidine-4-carboxamide], the “Range: increase in enzyme activity in comparison with non-treated cells (Enzyme activity assay for exemplified compounds)” value was “B (Increase in comparison with non-treated of >1.7-2.0 fold is shown as B)”.

Consider `COc1ccccc1Nc1cc(N)nc(C(=O)N(C)c2ccccc2)c1` [Example 50, 6-Amino-4-((2-methoxyphenyl)amino)-N-methyl-N-phenylpicolinamide], for which the “Range: increase in enzyme activity in comparison with non-treated cells (Enzyme activity assay for compounds of Examples 33-141)” value is “D”.

For `COc1cccc(Nc2nc(N)cc(C(=O)N(C)c3ccccc3)n2)c1` [Example 7, 6-Amino-2-((3-methoxyphenyl)amino)-N-methyl-N-phenylpyrimidine-4-carboxamide], the “Range: increase in enzyme activity in comparison with non-treated cells (Enzyme activity assay for exemplified compounds)” value is on record as “D”.

On to `Nc1cc(Nc2ccccc2F)cc(C(=O)Nc2ccccc2)n1` [Example 74, 6-Amino-4-((2-fluorophenyl)amino)-N-phenylpicolinamide], for which the “Range: increase in enzyme activity in comparison with non-treated cells (Enzyme activity assay for compounds of Examples 33-141)” value is “C (Increase in comparison with non-treated of 1.2-1.7 fold is shown as C)”.

Take `COc1ccccc1Nc1cc(N)nc(C(=O)Nc2ccccc2)c1` [Example 53, 6-Amino-4-((2-methoxyphenyl)amino)-N-phenylpicolinamide]: the “Range: increase in enzyme activity in comparison with non-treated cells (Enzyme activity assay for compounds of Examples 33-141)” value is given as “C (Increase in comparison with non-treated of 1.2-1.7 fold is shown as C)”.

Regarding `CN(C(=O)c1cc(Nc2ccccc2O)nc(N)n1)C1CCc2ccccc2C1` (centres unmarked) [Example 83, 2-amino-6-((2-hydroxyphenyl)amino)-N-methyl-N-(1,2,3,4-tetrahydronaphthalen-2-yl)-pyrimidine-4-carboxamide], the “Range: increase in enzyme activity in comparison with non-treated cells (Enzyme activity assay for compounds of Examples 33-141)” value is on record as “D”.

Turning to `COc1ccccc1Nc1cc(N)cc(C(=O)NC2Cc3ccccc3C2)n1.Cl` [Example 133, 4-amino-N-(2,3-dihydro-1H-inden-2-yl)-6-((2-methoxyphenyl)amino)picolinamide hydrochloride], the “Range: increase in enzyme activity in comparison with non-treated cells (Enzyme activity assay for compounds of Examples 33-141)” value is recorded as “C (Increase in comparison with non-treated of 1.2-1.7 fold is shown as C)”.

In the case of `COc1ccccc1Nc1cc(N)nc(C(=O)NC2CCc3ccccc3C2)c1` (centres unmarked) [Example 52, 6-Amino-4-((2-methoxyphenyl)amino)-N-(1,2,3,4-tetrahydronaphthalen-2-yl)picolinamide], the “Range: increase in enzyme activity in comparison with non-treated cells (Enzyme activity assay for compounds of Examples 33-141)” value is “B (Increase in comparison with non-treated of >1.7-2.0 fold is shown as B)”.

With `Cl.Nc1cc(Nc2cc(F)cc(F)c2)nc(C(=O)NC2Cc3ccccc3C2)c1` [Example 140, 4-Amino-6-((3,5-difluorophenyl)amino)-N-(2,3-dihydro-1H-inden-2-yl)picolinamide hydrochloride], the “Range: increase in enzyme activity in comparison with non-treated cells (Enzyme activity assay for compounds of Examples 33-141)” value is on record as “A (Increase in comparison with non-treated of >2.0 fold is shown as A)”.

Take `CN(C(=O)c1cc(N)nc(Nc2ccccc2O)c1)C1Cc2ccccc2C1` [Example 44, 2-Amino-N-(2,3-dihydro-1H-inden-2-yl)-6-((2-hydroxyphenyl)amino)-N-methyl-isonicotinamide]: the “Range: increase in enzyme activity in comparison with non-treated cells (Enzyme activity assay for compounds of Examples 33-141)” value is on record as “C (Increase in comparison with non-treated of 1.2-1.7 fold is shown as C)”.

On to `Cc1c(F)cccc1Nc1cc(N)cc(C(=O)NC2Cc3ccccc3C2)n1` [Example 108, 4-Amino-N-(2,3-dihydro-1H-inden-2-yl)-6-((3-fluoro-2-methylphenyl)amino)picolinamide], for which the “Range: increase in enzyme activity in comparison with non-treated cells (Enzyme activity assay for compounds of Examples 33-141)” value is “B (Increase in comparison with non-treated of >1.7-2.0 fold is shown as B)”.

In the case of `Nc1cc(Nc2ccccc2F)cc(C(=O)NC2Cc3ccccc3C2)n1` [Example 70, 6-Amino-N-(2,3-dihydro-1H-inden-2-yl)-4-((2-fluorophenyl)amino)picolinamide], the “Range: increase in enzyme activity in comparison with non-treated cells (Enzyme activity assay for compounds of Examples 33-141)” value is listed as “D”.

As for `Nc1nc2c(c(Nc3ccccc3O)n1)CCN(c1ccccc1)C2` [Example 32, 2-((2-Amino-7-phenyl-5,6,7,8-tetrahydropyrido[3,4-d]pyrimidin-4-yl)amino)phenol], the “Range: increase in enzyme activity in comparison with non-treated cells (Enzyme activity assay for exemplified compounds)” value is listed as “B (Increase in comparison with non-treated of >1.7-2.0 fold is shown as B)”.

Turning to `Nc1cc(Nc2ccccc2Cl)nc(C(=O)NC2Cc3ccccc3C2)c1` [Example 101, 4-Amino-6-((2-chlorophenyl)amino)-N-(2,3-dihydro-1H-inden-2-yl)picolinamide], the “Range: increase in enzyme activity in comparison with non-treated cells (Enzyme activity assay for compounds of Examples 33-141)” value is “B (Increase in comparison with non-treated of >1.7-2.0 fold is shown as B)”.

Take `Nc1cc(Nc2ccccc2O)cc(C(=O)N2CCN(c3ccccc3)CC2)n1` [Example 61, (6-Amino-4-((2-hydroxyphenyl)amino)pyridin-2-yl)(4-phenylpiperazin-1-yl)methanone]: the “Range: increase in enzyme activity in comparison with non-treated cells (Enzyme activity assay for compounds of Examples 33-141)” value was “C (Increase in comparison with non-treated of 1.2-1.7 fold is shown as C)”.

As for `Nc1cc(Nc2ccccc2O)cc(C(=O)NC2Cc3ccccc3C2)n1` [Example 67, 6-Amino-N-(2,3-dihydro-1H-inden-2-yl)-4-((2-hydroxyphenyl)amino)picolinamide], the “Range: increase in enzyme activity in comparison with non-treated cells (Enzyme activity assay for compounds of Examples 33-141)” value is listed as “B (Increase in comparison with non-treated of >1.7-2.0 fold is shown as B)”.

For `Nc1nc(Nc2ccccc2O)cc(C(=O)N2CCN(c3ccccc3)CC2)n1` [Example 130, (2-Amino-6-((2-hydroxyphenyl)amino)pyrimidin-4-yl)(4-phenylpiperazin-1-yl)methanone], the “Range: increase in enzyme activity in comparison with non-treated cells (Enzyme activity assay for compounds of Examples 33-141)” value was “C (Increase in comparison with non-treated of 1.2-1.7 fold is shown as C)”.

As for `Nc1cc(Nc2ccc(F)cc2)nc(C(=O)NC2Cc3ccccc3C2)c1` [Example 98, 4-Amino-N-(2,3-dihydro-1H-inden-2-yl)-6-((4-fluorophenyl)amino)picolinamide], the “Range: increase in enzyme activity in comparison with non-treated cells (Enzyme activity assay for compounds of Examples 33-141)” value is listed as “B (Increase in comparison with non-treated of >1.7-2.0 fold is shown as B)”.
